The record followed here is ChEMBL document CHEMBL5696442, “Discovery of type II inhibitors of TGFβ-activated kinase 1 (TAK1) and mitogen-activated protein kinase kinase kinase kinase 2 (MAP4K2)” (J Med Chem, 2015).

Experiment [1] addresses Mitogen-activated protein kinase kinase kinase 10 (Homo sapiens) (UniProt Q02779). As to the kind of experiment: Inhibition of MLK2 (unknown origin) at 1 uM by Ambit Kinomescan binding assay relative to control; values are per cent of control.
For experiment [2], the target named is p38 delta/gamma (Homo sapiens) (UniProt O15264+P53778). The experiment can be described thus: Inhibition of p38d/g K2 labeling site in human Huh-7 cells at 10 uM by KiNativ Profiling analysis relative to control. Type of experiment: cell-based.
The target in experiment [3] is T1, Inhibitor of nuclear factor kappa-B kinase subunit epsilon (Homo sapiens) (UniProt Q14164).
T1 sequence (whole entry): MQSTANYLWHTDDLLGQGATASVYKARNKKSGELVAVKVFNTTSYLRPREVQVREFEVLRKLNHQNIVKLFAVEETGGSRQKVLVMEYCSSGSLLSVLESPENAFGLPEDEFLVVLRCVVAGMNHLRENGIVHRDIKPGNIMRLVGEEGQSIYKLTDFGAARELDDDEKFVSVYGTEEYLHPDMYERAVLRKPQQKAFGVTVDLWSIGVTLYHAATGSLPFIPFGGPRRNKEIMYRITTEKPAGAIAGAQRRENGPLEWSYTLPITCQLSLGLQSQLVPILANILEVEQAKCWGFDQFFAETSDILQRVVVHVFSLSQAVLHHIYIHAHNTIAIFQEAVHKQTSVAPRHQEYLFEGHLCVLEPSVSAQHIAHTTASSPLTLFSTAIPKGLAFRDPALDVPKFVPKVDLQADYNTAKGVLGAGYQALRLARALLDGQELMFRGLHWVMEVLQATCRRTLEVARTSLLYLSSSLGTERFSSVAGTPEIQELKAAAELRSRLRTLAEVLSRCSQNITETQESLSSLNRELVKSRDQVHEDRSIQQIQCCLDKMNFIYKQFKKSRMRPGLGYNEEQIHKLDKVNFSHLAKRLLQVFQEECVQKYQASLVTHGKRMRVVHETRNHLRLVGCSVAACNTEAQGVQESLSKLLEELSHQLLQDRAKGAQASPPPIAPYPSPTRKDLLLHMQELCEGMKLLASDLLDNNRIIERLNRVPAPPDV
As to the kind of experiment: Inhibition of IKKe K2 labeling site in human Huh-7 cells at 1 uM by KiNativ Profiling analysis relative to control. The class given is cell-based.

Experiment [4] has as its target Tyrosine-protein kinase JAK3 (Homo sapiens) (UniProt P52333). The experiment can be described thus: Inhibition of JAK3 JH1catalytic domain (unknown origin) at 10 uM by Ambit Kinomescan binding assay relative to control; values are per cent of control.
Experiment [5] addresses Cyclin-dependent kinase 1 (Homo sapiens) (UniProt P06493). The experiment can be described thus: Inhibition of CDC2 Lys2 labeling site in human Huh-7 cell lysate at 1 uM by KiNativ Profiling analysis relative to control. Type of experiment: subcellular.
In experiment [6] the target is T2, Interleukin-1 receptor-associated kinase 4 (Homo sapiens) (UniProt Q9NWZ3).
T2 sequence (whole entry): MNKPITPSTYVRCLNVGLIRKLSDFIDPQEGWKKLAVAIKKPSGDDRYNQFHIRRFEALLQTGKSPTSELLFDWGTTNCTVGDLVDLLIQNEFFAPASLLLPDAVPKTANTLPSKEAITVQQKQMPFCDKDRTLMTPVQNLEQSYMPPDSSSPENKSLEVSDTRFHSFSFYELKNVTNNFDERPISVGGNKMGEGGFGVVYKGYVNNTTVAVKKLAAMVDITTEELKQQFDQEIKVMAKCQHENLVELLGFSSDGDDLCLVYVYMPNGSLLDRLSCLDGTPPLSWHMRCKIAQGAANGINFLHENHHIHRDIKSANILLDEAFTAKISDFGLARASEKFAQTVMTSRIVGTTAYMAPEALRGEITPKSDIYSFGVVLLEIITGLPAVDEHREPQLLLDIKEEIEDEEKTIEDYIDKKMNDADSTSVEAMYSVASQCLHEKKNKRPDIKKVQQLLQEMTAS
The experiment can be described thus: Inhibition of IRAK4 Lys2 labeling site in human Huh-7 cell lysate at 1 uM by KiNativ Profiling analysis relative to control. The class given is subcellular.

Experiment [7] has as its target T3, Serine/threonine-protein kinase greatwall (Homo sapiens) (UniProt Q96GX5).
T3 sequence (whole entry): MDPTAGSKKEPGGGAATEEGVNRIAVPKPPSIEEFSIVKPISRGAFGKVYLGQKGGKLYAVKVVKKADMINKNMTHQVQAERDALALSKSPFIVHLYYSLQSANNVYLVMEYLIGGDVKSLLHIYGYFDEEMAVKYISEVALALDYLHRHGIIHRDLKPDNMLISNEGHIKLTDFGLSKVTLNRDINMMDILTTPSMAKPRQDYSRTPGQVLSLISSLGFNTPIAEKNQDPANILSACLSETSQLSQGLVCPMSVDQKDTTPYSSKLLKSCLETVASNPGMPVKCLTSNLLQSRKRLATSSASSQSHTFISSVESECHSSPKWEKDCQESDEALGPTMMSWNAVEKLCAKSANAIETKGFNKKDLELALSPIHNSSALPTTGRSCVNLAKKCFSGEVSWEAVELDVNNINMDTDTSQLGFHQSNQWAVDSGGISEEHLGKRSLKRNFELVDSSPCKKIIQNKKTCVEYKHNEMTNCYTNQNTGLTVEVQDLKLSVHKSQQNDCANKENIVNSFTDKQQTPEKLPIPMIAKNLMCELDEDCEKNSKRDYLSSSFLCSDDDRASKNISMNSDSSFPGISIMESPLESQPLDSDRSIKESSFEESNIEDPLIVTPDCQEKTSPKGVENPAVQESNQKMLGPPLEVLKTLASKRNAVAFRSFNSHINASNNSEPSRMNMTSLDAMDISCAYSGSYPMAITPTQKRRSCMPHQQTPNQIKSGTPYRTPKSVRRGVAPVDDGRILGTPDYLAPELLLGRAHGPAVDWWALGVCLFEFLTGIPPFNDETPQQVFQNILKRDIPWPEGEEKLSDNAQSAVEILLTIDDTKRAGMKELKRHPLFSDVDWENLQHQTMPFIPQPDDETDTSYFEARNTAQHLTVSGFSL
The experiment can be described thus: Inhibition of MASTL ATP labeling site in human Huh-7 cell lysate at 1 uM by KiNativ Profiling analysis relative to control. Type of experiment: subcellular.

Chain of Mitogen-activated protein kinase kinase kinase 10 (Homo sapiens) (Q02779 whole entry, looked up): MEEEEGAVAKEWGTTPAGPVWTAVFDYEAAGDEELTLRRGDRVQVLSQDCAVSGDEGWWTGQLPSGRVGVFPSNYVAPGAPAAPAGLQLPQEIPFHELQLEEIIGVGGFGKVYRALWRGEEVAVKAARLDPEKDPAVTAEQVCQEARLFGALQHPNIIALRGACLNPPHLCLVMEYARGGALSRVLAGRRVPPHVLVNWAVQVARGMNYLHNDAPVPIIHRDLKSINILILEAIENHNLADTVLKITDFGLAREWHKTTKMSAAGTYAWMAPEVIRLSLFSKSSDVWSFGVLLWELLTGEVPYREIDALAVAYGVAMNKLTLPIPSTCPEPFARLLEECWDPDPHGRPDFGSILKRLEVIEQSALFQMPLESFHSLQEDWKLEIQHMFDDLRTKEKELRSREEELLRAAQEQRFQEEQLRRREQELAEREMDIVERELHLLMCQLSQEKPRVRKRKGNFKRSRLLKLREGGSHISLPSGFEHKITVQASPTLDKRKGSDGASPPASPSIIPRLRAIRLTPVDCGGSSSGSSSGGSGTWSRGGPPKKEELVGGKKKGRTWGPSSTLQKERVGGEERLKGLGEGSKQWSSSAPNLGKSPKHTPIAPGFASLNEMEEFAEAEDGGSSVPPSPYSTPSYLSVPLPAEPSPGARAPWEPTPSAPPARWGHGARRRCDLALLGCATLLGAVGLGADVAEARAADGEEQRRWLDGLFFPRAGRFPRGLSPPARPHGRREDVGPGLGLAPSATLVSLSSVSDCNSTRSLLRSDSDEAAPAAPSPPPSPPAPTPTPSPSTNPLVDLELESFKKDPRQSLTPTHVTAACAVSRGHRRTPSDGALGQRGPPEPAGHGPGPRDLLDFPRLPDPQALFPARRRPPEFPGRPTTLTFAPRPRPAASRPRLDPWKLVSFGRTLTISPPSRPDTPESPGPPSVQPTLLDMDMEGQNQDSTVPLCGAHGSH
Chain of Tyrosine-protein kinase JAK3 (Homo sapiens) (P52333 whole entry, the tested form may be a part): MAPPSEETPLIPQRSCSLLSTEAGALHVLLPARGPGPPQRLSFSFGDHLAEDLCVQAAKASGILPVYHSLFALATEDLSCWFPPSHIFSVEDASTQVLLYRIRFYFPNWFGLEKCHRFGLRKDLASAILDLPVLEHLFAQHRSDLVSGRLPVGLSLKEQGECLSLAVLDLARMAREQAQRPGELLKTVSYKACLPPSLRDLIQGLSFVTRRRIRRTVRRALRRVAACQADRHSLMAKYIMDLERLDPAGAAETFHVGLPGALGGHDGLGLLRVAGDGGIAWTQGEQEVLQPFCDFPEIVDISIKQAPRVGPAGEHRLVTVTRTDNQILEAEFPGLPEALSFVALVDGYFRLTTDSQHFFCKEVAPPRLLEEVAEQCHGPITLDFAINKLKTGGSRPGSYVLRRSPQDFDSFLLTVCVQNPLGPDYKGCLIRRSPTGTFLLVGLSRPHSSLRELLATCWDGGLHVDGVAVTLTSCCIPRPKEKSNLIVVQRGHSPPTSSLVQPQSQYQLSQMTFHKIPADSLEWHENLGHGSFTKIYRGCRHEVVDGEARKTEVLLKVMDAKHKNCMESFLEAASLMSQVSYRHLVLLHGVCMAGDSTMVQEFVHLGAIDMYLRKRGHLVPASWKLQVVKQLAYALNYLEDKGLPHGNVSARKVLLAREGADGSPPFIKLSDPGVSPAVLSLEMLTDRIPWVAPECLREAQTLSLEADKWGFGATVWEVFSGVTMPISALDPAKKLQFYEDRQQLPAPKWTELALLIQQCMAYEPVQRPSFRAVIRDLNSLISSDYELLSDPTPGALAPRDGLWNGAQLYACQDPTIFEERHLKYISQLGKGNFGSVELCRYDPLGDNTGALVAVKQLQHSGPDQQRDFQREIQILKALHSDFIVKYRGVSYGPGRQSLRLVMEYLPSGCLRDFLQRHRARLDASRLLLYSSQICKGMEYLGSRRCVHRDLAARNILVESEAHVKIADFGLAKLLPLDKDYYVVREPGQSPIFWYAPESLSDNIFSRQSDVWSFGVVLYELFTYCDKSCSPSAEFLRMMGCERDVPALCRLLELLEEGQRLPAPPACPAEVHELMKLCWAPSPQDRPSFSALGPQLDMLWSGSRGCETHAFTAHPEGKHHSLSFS
Chain of Cyclin-dependent kinase 1 (Homo sapiens) (P06493 whole entry, looked up): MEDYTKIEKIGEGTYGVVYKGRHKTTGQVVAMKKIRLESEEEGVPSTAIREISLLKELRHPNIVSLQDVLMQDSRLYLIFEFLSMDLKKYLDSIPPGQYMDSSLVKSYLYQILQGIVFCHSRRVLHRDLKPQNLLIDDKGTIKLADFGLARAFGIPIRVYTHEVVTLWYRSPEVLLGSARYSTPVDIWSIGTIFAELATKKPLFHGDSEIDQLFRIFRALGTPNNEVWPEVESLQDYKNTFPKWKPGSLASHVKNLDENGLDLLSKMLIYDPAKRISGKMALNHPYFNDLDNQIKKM

In the case of `CCN1CCN(Cc2ccc(NC(=O)c3ccc(C)c(/C=C/c4cnc5[nH]ccc5c4OC)c3)cc2C(F)(F)F)CC1`, the residual activity in experiment [1] came to 53%.
`CCN1CCN(Cc2ccc(NC(=O)c3ccc(C)c(Oc4ccnc5[nH]ccc45)c3)cc2C(F)(F)F)CC1`: the inhibition (commonly how much of the control response was suppressed) worked out at 65% in experiment [2] and 17.7% in experiment [3]. The same compound had a percent of control in experiment [4] of 2.4%.
For the compound `CNc1cc(Oc2cc(C(=O)Nc3cc(N4CCN(C)CC4)cc(C(F)(F)F)c3)ccc2C)ncn1`, the inhibition was found to be 0.4% in experiment [5], 8.4% in experiment [6] and 8.6% in experiment [7].
